Measurements reported in paper PMC4666381 (2015).

How the values were obtained:
[1] = test system: wt-DNB aptamer (RNA, aptamer) GGAGCUCAGCCUUCACUGCCUUAUUCCGGACGCCGGGCCCGAAUGCUGCUACGGCAGUCGAAGACAACAUCGCGCCCUUCGGAGGCACCACGGUCGGAUCCAC; assay: fluorescence increase titration; conditions: 125 mM KCl, 5 mM MgCl2; 20 mM Hepes pH 7.4, 25°C; probe 100 nM
[2] = test system: clone 5 (RNA, aptamer) GGAGCUCAGCCUUCACUGCGGUUGCCCUCCGUGCUUCAUGCUUCCCUGCUUCGGCAGUCGCGGUAAACCGUAGAGAAAGUUGAGGCACCACGGUCGGAUCCAC; assay: fluorescence increase titration; conditions: 125 mM KCl, 5 mM MgCl2; 20 mM Hepes pH 7.4, 25°C; probe 1 µM
[3] = test system: DNB aptamer (RNA, aptamer) GGUGCCUUAUUCCGGACGCCGGGCCCGAAUGCUGCUACGGCAGUCGAAGACAACAUCGCGCCCUUCGGAGGCACC; assay: fluorescence increase titration; conditions: 125 mM KCl, 5 mM MgCl2; 20 mM Hepes pH 7.4, 25°C; probe 100 nM
[4] = test system: DNB aptamer (RNA, aptamer) GGUGCCUUAUUCCGGACGCCGGGCCCGAAUGCUGCUACGGCAGUCGAAGACAACAUCGCGCCCUUCGGAGGCACC; assay: fluorescence competition; conditions: 125 mM KCl, 5 mM MgCl2; 20 mM Hepes pH 7.4; displaces SR-DN (1 μM) from DNB (100 nM); calculated from IC50

SMILES | KD [1] | KD [2] | KD [3] | KD [4]
CCN(CC)c1ccc2c(-c3ccc(S(=O)(=O)NCCOCCOCCNc4ccc([N+](=O)[O-])cc4[N+](=O)[O-])cc3S(=O)(=O)[O-])c3ccc(=[N+](CC)CC)cc-3oc2c1 | 1.44 ± 0.08 µM | 20.1 ± 3.9 µM | 0.80 ± 0.10 µM | –
CN(C)c1ccc2c(-c3ccc(C(=O)NCCOCCOCCNc4ccc([N+](=O)[O-])cc4[N+](=O)[O-])cc3C(=O)[O-])c3ccc(=[N+](C)C)cc-3oc2c1 | – | 7.77 ± 0.9 µM | 0.35 ± 0.05 µM | –
N=c1ccc2c(-c3ccc(C(=O)NCCOCCOCCNc4ccc([N+](=O)[O-])cc4[N+](=O)[O-])cc3C(=O)O)c3ccc(N)cc3oc-2c1 | – | – | 4.48 ± 0.60 µM | –
NCCOCCOCCNc1ccc([N+](=O)[O-])cc1[N+](=O)[O-] | – | – | – | 0.1 ± 0.014 µM
O=C(NCCOCCOCCNc1ccc([N+](=O)[O-])cc1[N+](=O)[O-])c1ccc(-c2c3ccc(=O)cc-3oc3cc(O)ccc23)c(C(=O)O)c1 | – | 27.2 ± 3.2 µM | 8.55 ± 0.53 µM | –
O=[N+]([O-])c1ccc(NCCOCCOCCNS(=O)(=O)c2ccc(C3=c4cc5c6c(c4Oc4c3cc3c7c4CCCN7CCC3)CCC[N+]=6CCC5)c(S(=O)(=O)[O-])c2)c([N+](=O)[O-])c1 | – | 52.6 ± 17.8 µM | 18.0 ± 1.8 µM | –
